Measurements reported in patent US9241487B2, “Pyrimidine derivatives and use thereof as pesticides” (BAYER INTELLECTUAL PROPERTY GMBH, priority 2010, dated 2016).

Legend:
Sphaerotheca fuliginea = test: Sphaerotheca test (cucumber)/protective; format: in vivo; conditions: Podosphaera fuliginea, 168 h, cucumber plants, protective spray, evaluation 7 days after inoculation, read-out: Efficacy (%)
Experimental: Sphaerotheca Test (Cucumber)/Protective
(§1) Solvent: 49 parts by weight of N,N-dimethylformamide
(§2) Emulsifier: 1 part by weight of alkylaryl polyglycol ether
To produce a suitable preparation of active compound, 1 part by weight of active compound is mixed with the stated amounts of solvent and emulsifier, and the concentrate is diluted with water to the desired concentration. To test for protective activity, young cucumber plants are sprayed with the preparation of active compound at the stated application rate. 1 day after the treatment, the plants are inoculated with a spore suspension of Sphaerotheca fuliginea. The plants are then placed in a greenhouse at 70% relative air humidity and a temperature of 23° C. Evaluation follows 7 days after the inoculation. 0% means an efficacy which corresponds to that of the control, whereas an efficacy of 100% means that no infection is observed. In this test, the following compounds according to the invention show, at an active compound concentration of 500 ppm, an efficacy of 70% or more: […]

[1] = system: Blumeria graminis fsp. hordei; test: Blumeria graminis test (barley)/protective; format: in vivo; conditions: 168 h, protective spray, evaluation 7 days after inoculation, read-out: Efficacy (%)
Experimental: Blumeria graminis Test (Barley)/Protective
(§3) Solvent: 49 parts by weight of N,N-dimethylacetamide
as §2
To produce a suitable preparation of active compound, 1 part by weight of active compound is mixed with the stated amounts of solvent and emulsifier, and the concentrate is diluted with water to the desired concentration. To test for protective activity, young plants are sprayed with the preparation of active compound at the stated application rate. After the spray coating has dried on, the plants are dusted with spores of Blumeria graminis fsp. hordei. The plants are placed in a greenhouse at a temperature of about 18° C. and a relative air humidity of about 80% to promote the development of mildew pustules. Evaluation follows 7 days after the inoculation. 0% means an efficacy which corresponds to that of the control, whereas an efficacy of 100% means that no infection is observed.
(§4) In this test, the following compounds according to the invention show, at an active compound concentration of 500 ppm, an efficacy of 70% or more: […]

[2] = log P by HPLC on reversed-phase columns (C 18), EEC directive 79/831 Annex V.A8; format: physicochemical; conditions: reversed-phase HPLC columns (C 18); method [a]: LC-MS, acidic range pH 2.7, 0.1% aqueous formic acid/acetonitrile, gradient 10% to 95% acetonitrile
Experimental: The log P values were measured according to EEC directive 79/831 Annex V.A8 by HPLC (High Performance Liquid Chromatography) on reversed-phase columns (C 18), using the methods below: [a] The LC-MS determination in the acidic range is carried out at pH 2.7 with 0.1% aqueous formic acid and acetonitrile (contains 0.1% formic acid) as mobile phases; linear gradient from 10% acetonitrile to 95% acetonitrile.

Leptosphaeria nodorum = Leptosphaeria nodorum test (wheat)/protective; format: in vivo; conditions: Parastagonospora nodorum, wheat plants, protective spray, evaluation 7-9 days after inoculation, read-out: Efficacy (%)
Experimental: Leptosphaeria nodorum Test (Wheat)/Protective
as §1, §2
To produce a suitable preparation of active compound, 1 part by weight of active compound is mixed with the stated amounts of solvent and emulsifier, and the concentrate is diluted with water to the desired concentration. To test for protective activity, young wheat plants are sprayed with the preparation of active compound at the stated application rate. 1 day after the treatment, the plants are inoculated with an aqueous spore suspension of Leptosphaeria nodorum and then remain at 100% relative atmospheric humidity and 22° C. for 48 h. The plants are then placed in a greenhouse at 90% relative atmospheric humidity and a temperature of 22° C. Evaluation is carried out 7-9 days after the inoculation. 0% means an efficacy which corresponds to that of the control, whereas an efficacy of 100% means that no infection is observed. In this test, the following compounds according to the invention show, at an active compound concentration of 500 ppm, an efficacy of 70% or more: […]

Septoria tritici = Septoria tritici test (wheat)/protective; format: in vivo; conditions: Zymoseptoria tritici, 504 h, protective spray, evaluation 21 days after inoculation, read-out: Efficacy (%)
Experimental: Septoria tritici Test (Wheat)/Protective
as §3, §2
(§5) To produce a suitable preparation of active compound, 1 part by weight of active compound is mixed with the stated amounts of solvent and emulsifier, and the concentrate is diluted with water to the desired concentration. To test for protective activity, young plants are sprayed with the preparation of active compound at the stated application rate. After the spray coating has dried on, the plants are sprayed with a spore suspension of Septoria tritici. The plants remain in an incubation cabin at 20° C. and 100% relative atmospheric humidity for 48 hours. Thereafter, the plants are placed under a translucent hood at 15° C. and 100% relative air humidity for a further 60 hours. The plants are placed in a greenhouse at a temperature of about 15° C. and a relative atmospheric humidity of about 80%. Evaluation follows 21 days after the inoculation. 0% means an efficacy which corresponds to that of the control, whereas an efficacy of 100% means that no infection is observed.
as §4

Alternaria solani = test: Alternaria test (tomato)/protective; format: in vivo; conditions: 168 h, tomato plants, protective spray, evaluation 7 days after inoculation, read-out: Efficacy (%)
Experimental: Alternaria Test (Tomato)/Protective
as §1, §2
To produce a suitable preparation of active compound, 1 part by weight of active compound is mixed with the stated amounts of solvent and emulsifier, and the concentrate is diluted with water to the desired concentration. To test for protective activity, young tomato plants are sprayed with the preparation of active compound at the stated application rate. 1 day after the treatment, the plants are inoculated with a spore suspension of Alternaria solani and then remain at 100% rd. humidity and 22° C. for 24 h. The plants then remain at 96% rd. atmospheric humidity and a temperature of 20° C. Evaluation is carried out 7 days after the inoculation. 0% means an efficacy which corresponds to that of the control, whereas an efficacy of 100% means that no infection is observed.
as §4

Puccinia triticina = Puccinia triticina test (wheat)/protective; format: in vivo; conditions: 192 h, protective spray, evaluation 8 days after inoculation, read-out: Efficacy (%)
Experimental: Puccinia triticina Test (Wheat)/Protective
as §3, §2
as §5, with “sprayed with spores with a spore” for “sprayed with a spore”, “suspension of Puccinia triticina. The plants” for “suspension of Septoria tritici. The plants”, “48 hours. The plants” for “48 hours. Thereafter, the plants are placed under a translucent hood at 15° C. and 100% relative air humidity for a further 60 hours. The plants”, “of about 20° C. and” for “of about 15° C. and”, “Evaluation follows 8 days after” for “Evaluation follows 21 days after”
as §4

Uromyces appendiculatus = test: Uromyces test (bean)/protective; format: in vivo; conditions: 240 h, protective spray, evaluation 10 days after inoculation, read-out: Efficacy (%)
Experimental: Uromyces Test (Bean)/Protective
(§6) Solvents: 24.5 parts by weight of acetone
(§7) • 24.5 parts by weight of dimethylacetamide Emulsifier: 1 part by weight of alkylaryl polyglycol ether
To produce a suitable preparation of active compound, 1 part by weight of active compound is mixed with the stated amounts of solvent and emulsifier, and the concentrate is diluted with water to the desired concentration. To test for protective activity, young plants are sprayed with the preparation of active compound at the stated application rate. After the spray coating has dried on, the plants are inoculated with an aqueous spore suspension of the bean rust pathogen Uromyces appendiculatus and then remain in an incubation cabin at about 20° C. and 100% relative atmospheric humidity for 1 day. The plants are then placed in the greenhouse at about 21° C. and a relative atmospheric humidity of about 90%. Evaluation follows 10 days after the inoculation. 0% means an efficacy which corresponds to that of the control, whereas an efficacy of 100% means that no infection is observed.
(§8) In this test, the following compounds according to the invention show, at an active compound concentration of 100 ppm, an efficacy of 70% or more: […]

Venturia inaequalis = test: Venturia test (apple)/protective; format: in vivo; conditions: 240 h, protective spray, evaluation 10 days after inoculation, read-out: Efficacy (%)
Experimental: Venturia Test (Apple)/Protective
as §6, §7
To produce a suitable preparation of active compound, 1 part by weight of active compound is mixed with the stated amounts of solvent and emulsifier, and the concentrate is diluted with water to the desired concentration. To test for protective activity, young plants are sprayed with the preparation of active compound at the stated application rate. After the spray coating has dried on, the plants are inoculated with an aqueous conidia suspension of the apple scab pathogen Venturia inaequalis and then remain in an incubation cabin at approx. 20° C. and 100% relative air humidity for 1 day. The plants are then placed in the greenhouse at about 21° C. and a relative atmospheric humidity of about 90%. Evaluation follows 10 days after the inoculation. 0% means an efficacy which corresponds to that of the control, whereas an efficacy of 100% means that no infection is observed.
as §8

SMILES	pest or weed control at 500 ppm (Sphaerotheca fuliginea)	pest or weed control at 500 ppm [1]	chromatographic logP [2]	pest or weed control at 500 ppm (Leptosphaeria nodorum)	pest or weed control at 500 ppm (Septoria tritici)	pest or weed control at 500 ppm (Alternaria solani)	pest or weed control at 500 ppm (Puccinia triticina)	pest or weed control at 100 ppm (Uromyces appendiculatus)	pest or weed control at 100 ppm (Venturia inaequalis)
CC(C)C(O)(CSc1ccc(SC(F)(F)F)cc1)c1cncnc1 (centres unmarked) [Compound 3]	94%	100%	3.28	90%	75%	95%			
CC(C)(C)C(O)(CSc1ccc(SC(F)(F)F)cc1)c1cncnc1 (centres unmarked) [Compound 4]	91%	89%		70%	100%	95%			
CC(C)(C)C(O)(CCc1ccc(SC(F)(F)F)cc1)c1cncnc1 (centres unmarked) [Compound 7]	95%			95%		94%			
OC(c1cncnc1)(c1ccc(F)cc1F)C1(Oc2ccc(SC(F)(F)F)cc2)CC1 (centres unmarked) [Compound 8]	100%					80%			
CC(C)(Oc1ccc(OC(F)(F)F)cc1)C(C)(O)c1cncnc1 (centres unmarked) [Compound 9]	95%	100%		100%	90%	100%	100%	100%	94%
CC(C)(Sc1ccc(OC(F)(F)F)cc1)C(C)(O)c1cncnc1 (centres unmarked) [Compound 10]				100%		100%			
CC(C)(Sc1ccc(SC(F)(F)F)cc1)C(C)(O)c1cncnc1 (centres unmarked) [Compound 11]				95%		100%			
CC#CC(O)(c1cncnc1)C(C)(C)Sc1ccc(OC(F)(F)F)cc1 (centres unmarked) [Compound 13]	76%			95%		100%			
CC#CC(O)(c1cncnc1)C(C)(C)Oc1ccc(OC(F)(F)F)cc1 (centres unmarked) [Compound 14]	95%	100%		100%	90%	94%	89%		
CC#CC(O)(c1cncnc1)C(C)(C)Sc1ccc(SC(F)(F)F)cc1 (centres unmarked) [Compound 15]	88%			95%		94%			
C=CCC(O)(c1cncnc1)C(C)(C)Sc1ccc(SC(F)(F)F)cc1 (centres unmarked) [Compound 16]				70%		100%			
OC(COc1ccc(OC(F)(F)F)cc1)(c1cncnc1)C1(Cl)CC1 (centres unmarked) [Compound 20]	75%			95%		100%		98%	100%
OC(COc1ccc(SC(F)(F)F)cc1)(c1cncnc1)C1(Cl)CC1 (centres unmarked) [Compound 21]	100%					95%			
CC(C)(Oc1cccc(OC(F)(F)F)c1)C(C)(O)c1cncnc1 (centres unmarked) [Compound 22]	95%			100%		100%			94%
CC#CC(O)(c1cncnc1)C(C)(C)Oc1cccc(OC(F)(F)F)c1 (centres unmarked) [Compound 23]	88%			70%		75%			
CC(C)C(O)(c1cncnc1)C(C)(C)Oc1cccc(OC(F)(F)F)c1 (centres unmarked) [Compound 24]	83%			80%		95%			
CC(C)(Oc1ccccc1OC(F)(F)F)C(C)(O)c1cncnc1 (centres unmarked) [Compound 25]						90%			
CC(C)C(O)(c1cncnc1)C(C)(C)Oc1ccccc1OC(F)(F)F (centres unmarked) [Compound 27]	88%								
CC(C)(C)C(O)(COc1ccc(OC(F)(F)F)cc1Cl)c1cncnc1 (centres unmarked) [Compound 29]	100%		3.47	75%		78%			
Cc1cc(OCC(O)(c2cncnc2)C(C)(C)C)ccc1SC(F)(F)F (centres unmarked) [Compound 32]	95%		3.04						
CC(C)(C)C(O)(COc1ccc(OC(F)F)cc1)c1cncnc1 (centres unmarked) [Compound 34]	95%		2.63	100%		95%			
